Assay: Human HepG2 cell viability assay in 384 well format
Assay type: toxicity, cell-based
Design: dose 125 nL, time 70.5 hour; concentration not given beside the values
Conditions: HepG2 cells, read-out: Inhibition

| SMILES | cytotoxicity at 70.5 h |
| --- | --- |
| Cc1nc(C(C)C)sc1C(=O)N(C)Cc1nc(-c2ccccn2)no1 | -9.57% |
| CCc1nc(N2CCC3(CC2)OCCCC3O)ncc1C (stereo not drawn) | -2.39% |
| COc1cc2c(cc1-c1nc3c(cnn3C(C)C3CC3)[nH]1)OCO2 (stereo not drawn) | -2.31% |
| O=S(=O)(NCc1cc2n(n1)CCNC2)c1ccc(OC(F)(F)F)cc1 | -16.5% |
| CCn1nc(CC(C)C)cc1C(=O)N1CC(c2ccncc2)C1 | -4.86% |
| Cc1ccccc1OCC1CCCN(C(=O)Cc2c[nH]c(=O)[nH]c2=O)C1 (stereo not drawn) | -0.878% |
| O=C(NCCOCCO)c1cnc(-c2ccccc2)nc1O | -7.84% |
| Cc1c(CN2CCCC(C(=O)CCc3ccccc3)C2)cc(C#N)n1C (stereo not drawn) | 12% |
| CCCc1nccn1-c1cccc(CN2CCCC2)c1 | -2.36% |
| COCc1nnc(C(=O)N(C)Cc2cnc3ccccn23)o1 | -3.55% |
| Cc1cc(NC(C)c2nnn[nH]2)n2nc(C)c(C)c2n1 (stereo not drawn) | 5.16% |
| C=Cc1ccc(C(=O)N2CCCC(Nc3ccccc3)C2)cc1 (stereo not drawn) | 26.6% |
| Cc1[nH]c(-c2ccccc2)nc1C(=O)N1CC[C@H](CO)[C@@H](O)C1 | 23.4% |
| Cc1ccccc1CC1(CO)CCCN(c2ncncc2C(C)C)C1 (stereo not drawn) | 5.34% |
| Cc1cc(C2CCCCN2C(=O)CN2C(=O)OC(C)(C)C2=O)no1 (stereo not drawn) | -7.73% |
| FC(F)(F)c1ccc(-c2cc(NC3CCNCC3)nc3[nH]ccc23)nc1 | -7.67% |
| CCn1ccnc1C1CCN(C(=O)C(O)c2ccc(Cl)cc2)CC1 (stereo not drawn) | -2.92% |
| CCCC(=O)Nc1ccc(CC(=O)N(C)CCc2cn[nH]c2)cc1 | -7.4% |
| CN1CCN(CCn2cnc3c(F)cccc3c2=O)CC1 | -1.43% |
| FC(F)(F)c1cccc(OC2CCN(Cc3c[nH]cn3)CC2)c1 | 45.6% |
| CCCC1C=CCN1C(=O)c1cc(COc2ccccc2)[nH]n1 (stereo not drawn) | -6.23% |
| O=C(Cc1ccccn1)N1CCCC(c2nccn2CC2CCC2)C1 (stereo not drawn) | -24.3% |
| Cc1nc2c(c(=O)[nH]1)CCN(C(=O)c1[nH]nc3c1CC(C)CC3)C2 (stereo not drawn) | 2.4% |

| SMILES | cytotoxicity at 70.5 h |
| --- | --- |
| CCN(Cc1nccn1C)C(=O)c1ccc(NCc2ccc(C)o2)nc1 | 27.2% |
| CCN(Cc1cn(CC2CCNCC2)nn1)CC1CCCO1 (stereo not drawn) | -6.79% |
| CCc1cc(N(C)Cc2ccncn2)n2nccc2n1 | 13.1% |
| CC(NC(=O)c1cc2n(n1)CCCN(C)C2)c1cn2ccsc2n1 (stereo not drawn) | 24.9% |
| COC[C@@]12CC[C@@H](N3CCOCC3)C[C@H]1CCN(c1ccc(Cl)cn1)C2 | -6.42% |
| O=C(c1cnccn1)N1CCCC(Cn2cc(C3CC3)nn2)C1 (stereo not drawn) | 15.7% |
| O=C(Cc1cn2ccsc2n1)N1CCOCC(O)(CN2CCCC2)C1 (stereo not drawn) | -4.72% |
| CC(C)c1nccn1CC(=O)Nc1ccnn1C(C)C(C)C (stereo not drawn) | -16% |
| Cc1nc(C)c(CCN2CCC(Oc3ccccc3F)CC2)s1 | 8.23% |
| CCNc1ccnc(N2Cc3cnc(CC(C)C)nc3C2)n1 | 18.4% |
| COCCc1noc(-c2ccc(-c3cc[nH]n3)nc2)n1 | -1.45% |
| Cc1csc2c(=O)n(CCN3CCNCC3)cnc12 | 11.9% |
| CCc1cnc(C)nc1NC1CC(=O)N(CC)C1 (stereo not drawn) | -7.16% |
| O=C(NCC1CCCN(Cc2cccc3nonc23)C1)c1ccc[nH]1 (stereo not drawn) | 3.08% |
| CCC1CN(C(=O)c2ccc(O)cn2)CCC(=O)N1Cc1ccccc1 (stereo not drawn) | -3.56% |
| CN(Cc1ccc(CCC(C)(C)O)cc1)CC1(CO)CC1 | -10.9% |
| Cc1cccc(CNC2CC(=O)N(Cc3cccc(F)c3)C2)c1 (stereo not drawn) | -4.77% |
| c1ccc(-c2cc(NCCCC3CCOC3)n3nccc3n2)cc1 (stereo not drawn) | -0.688% |
| Cn1c(C(N)=O)cc2c1CN(C(=O)C1CC(=O)N(C(C)(C)C)C1)CC2 (stereo not drawn) | -2.03% |
| CNc1nc(C)c(-c2nc(-c3c(C)ncc4c3CCNC4)no2)s1 | -16.8% |
| CCOc1cccc(C2CC(=O)NCc3nc(N)sc32)c1 (stereo not drawn) | -11.2% |
| Cn1ccnc1CN1CCc2ncnc(N3CCCC(C#N)C3)c2CC1 (stereo not drawn) | 26.4% |
| Cn1nccc1NC(=O)c1cccc(CN2C[C@H]3CC[C@@H](C2)N3)c1 | -1.03% |

| SMILES | cytotoxicity at 70.5 h |
| --- | --- |
| Cc1oc(C(C)C)cc1C(=O)N1C[C@H]2CC[C@@H]1CN(C(=O)N(C)C)C2 | 3.52% |
| CCc1ccc2nc(NCCCN(CCO)CCO)cc(C)c2c1 | -3.69% |
| CCn1c(N)nc2cc(C(=O)N3CCCN(C)CC3)cnc21 | 3.17% |
| Cc1cc(C)c(C#N)c(N2CCC3(CCCN(CCO)C3=O)C2)n1 (stereo not drawn) | 12.1% |
| c1cncc(C[C@@H]2CC[C@H](CN3CCCOCC3)O2)c1 | -10.6% |
| O=C(CSCC1CC1)N1CCCC(c2nccn2Cc2cccnc2)C1 (stereo not drawn) | -9.29% |
| O=C1CCC2(CCCN(Cc3nnc(C4CC4)o3)C2)CN1CCO (stereo not drawn) | 3.23% |
| COCC(=O)N1CCCN(Cc2cc(C(C)C)no2)CC1 | 12.3% |
| CC(=O)NCCNC(=O)CCn1c(C)cc2ccccc21 | -3.8% |
| COC(=O)c1ccc(N2CCN(C(=O)CCCc3cn[nH]c3)CC2)cc1 | -2.65% |
| CCN(C(C)=O)C1CCN(c2nccc(C3CCCC3)n2)C1 (stereo not drawn) | -30.2% |
| CCc1cc(N(C)CCc2c(C)n[nH]c2C)ncn1 | 26.8% |
| Cc1cc2[nH]c(CN3CCOC(c4ccc(F)cc4)C3)cc(=O)n2n1 (stereo not drawn) | -3.51% |
| Cc1nc2c(c(=O)n1C)CCN(C(=O)CCc1ccccc1O)CC2 | -6.87% |
| CN(Cc1ccc2nsnc2c1)C(=O)Cn1ncc(N(C)C)cc1=O | -7.03% |
| Cc1nn(C)c2nc(NCCN3CCCC(C(N)=O)C3)sc12 (stereo not drawn) | -13.4% |
| Cn1ncc2c(N3CCCC(C)(O)C3)nc(C(C)(C)C)nc21 (stereo not drawn) | -7.72% |
| COCCn1cnnc1CN(C)c1nc(N)ncc1C | -14.6% |
| Cc1nc(NC(=O)NC2CC(=O)N(C(C)C)C2)nn1C(C)C (stereo not drawn) | -0.942% |
| CC(C)C1CN(Cc2nccn2C(C)C)CCC(=O)N1CC1CC1 (stereo not drawn) | 0.0298% |
| CC(C)N1C[C@H](NC(=O)c2coc(COc3cccc(F)c3)n2)[C@@H](O)C1 | 2.02% |
| COc1ccc(-n2c(CCC(=O)O)nc3ccccc32)cc1CO | 4.28% |
| O=C(CN1C(=O)CCNC1=O)N1CCC2(CCc3ccccc32)CC1 | 16.2% |

| SMILES | cytotoxicity at 70.5 h |
| --- | --- |
| O=c1cc(N2CCCC2)cnn1CCc1cccc(F)c1 | 34.6% |
| COCc1noc(CCNC(=O)c2ccc(C3CCCO3)s2)n1 (stereo not drawn) | 8.28% |
| CN1CCCC2(CCN(C(=O)Cn3ncc4ccccc4c3=O)C2)C1=O (stereo not drawn) | 9.09% |
| CCc1ncc(C(=O)N(CC)CCOC)cn1 | -1.19% |
| COc1nc2ccn(CCc3scnc3C)c(=O)c2cc1C#N | -4.15% |
| OCC1(Cc2cccc(Cl)c2)CCCN(c2ncccn2)C1 (stereo not drawn) | 28.5% |
| CC1(Cc2ccccn2)NCCc2[nH]cnc21 (stereo not drawn) | -1.72% |
| O=C(O)CC[C@@H]1CN(c2ncccc2F)CC[C@@H]1N1CCOCC1 | -8.92% |
| COCCC(=O)N(C)CCC1=CCN(C)CC1 | 33% |
| O=C(NCc1ccc2[nH]c(=O)[nH]c2c1)c1ccc(CN2CCCC2)o1 | -9.98% |
| Cc1cc(CN(C)C(=O)C(c2ccccc2F)N(C)C)ccn1 (stereo not drawn) | -7.87% |
| CC(C)n1ccnc1C1CCN(c2nccc(C(F)(F)F)n2)CC1 | 5.98% |
| COc1ccc(Cc2noc(-c3ccc(NC(C)CO)nc3)n2)cc1 (stereo not drawn) | 3.07% |
| CC(C)(O)c1cn(C2CCN(C(=O)CCC(F)(F)F)CC2)nn1 | -2.56% |
| CCC(C)N(Cc1cnc(NC(C)C)nc1)Cc1ccsc1 (stereo not drawn) | -4.23% |
| Cc1nc(CN2CCC(C(=O)O)(n3ccc(C(C)C)n3)CC2)co1 | -0.222% |
| Cc1cc(C)c2c(c1)NC(=O)C2CC(=O)O (stereo not drawn) | -4.36% |
| CCOCCNC(=O)C1CCC(=O)N(CCc2ccc(Cl)cc2)C1 (stereo not drawn) | -3.36% |
| CC(C)CN(Cc1ccc(C(F)(F)F)nc1)Cc1cnn(C)c1 | -3.14% |
| O=C(c1ccc(S(=O)(=O)N2CCNCC2)cc1)N1CCCC(O)C1 (stereo not drawn) | -16.1% |
| COc1cc2c(cc1CN1CCC3(CCCN(C)C3=O)C1)OCCO2 (stereo not drawn) | -15.9% |
| CC(Nc1nccc(CCC(F)(F)F)n1)c1nc(-c2ccccn2)no1 (stereo not drawn) | -2.61% |
| CCNC(=O)[C@@H]1C[C@H](NC(=O)c2cc(=O)[nH]c3ccc(C)cc23)CN1C | -7.81% |

| SMILES | cytotoxicity at 70.5 h |
| --- | --- |
| Cn1c(Cn2ncc(N3CCCC3)cc2=O)nc2ccccc21 | 25.6% |
| Cn1nc(C2CC2)c2c1NC(=O)CC2c1cc(CN2CCCC2)cs1 (stereo not drawn) | -8.83% |
| c1ccc(SCCN2CCN(CCn3cncn3)CC2)cc1 | -22.3% |
| c1ccc(CN2C[C@H]3CC[C@@H]2CN(Cc2nnc(C4CC4)o2)C3)cc1 | -1.91% |
| O=C(Cn1cccc1)NCC1CCN(Cc2cc3ccccc3[nH]2)C1 (stereo not drawn) | -16.5% |
| COCCCC1(CO)CCCN(Cc2ccc(F)c(OC)c2)C1 (stereo not drawn) | 9.96% |
| CCCc1nc(C)c(CNc2nc(C)nc3oc(C)nc23)s1 | -8.14% |
| CCc1cc(NC2CCOCC2)n2nc(C)c(C)c2n1 | -10.6% |
| COCCOC1CCN(C(C(=O)O)c2ccc(OC)c(F)c2)CC1 (stereo not drawn) | -6% |
| O=C(c1ccoc1)N1CCCN(C(=O)c2ccc(C3CCCN3)s2)CC1 (stereo not drawn) | -7.17% |
| CN(C)CC1(O)CCN(Cc2cnc3c(-c4ccccc4)cnn3c2)C1 (stereo not drawn) | -4.22% |
| CC(N)C(=O)N1CCC(Oc2cccc(C(F)(F)F)c2)CC1 (stereo not drawn) | 11.5% |
| Cc1cnc(CNC(=O)C2CCOc3ccccc3C2)cn1 (stereo not drawn) | -19.3% |
| CN1CCN(Cc2cnc(S(=O)(=O)CC3CC3)n2CC2CCCO2)CC1 (stereo not drawn) | -4.87% |
| Cn1ccnc1CN1C[C@@H](CN2CCCCC2)[C@@H](CO)C1 | -6.64% |
| COc1ccc(CN2CCC3(CCCNC3)C2)cc1Cn1cccn1 (stereo not drawn) | 3.97% |
| CCN(C)CC(C)Cn1cnc(-c2ccccc2)c1C (stereo not drawn) | -15.1% |
| CC[C@@]1(O)CCN(c2ncc(Cl)cc2F)C[C@H]1O | -13.4% |
| CCCc1cc(CNC2CCN(c3nc(C)cc(C)n3)CC2)on1 | -5.05% |
| CCC[C@@H]1CN(C(=O)c2cc3ccccc3s2)C[C@H]1NS(C)(=O)=O | -2.51% |
| CCN(C)C(=O)CN1CCC(c2cc(N3CCOCC3)nc(C)n2)CC1 | -6.04% |

Reference: ChEMBL document CHEMBL3507680, “University of Dundee, Gates Library screen for HepG2 cell viability”
